# From PMC9785812 (Pharmaceutics, 2022)
# Assays:
# SSTR2 receptors = biological target: T1, SSTR2 receptors (Rattus norvegicus, UniProt P30680); experiment: Cell binding assay (membrane association and internalization); type: cell-based; details: for decrease of binding by co-incubation with unlabeled DOTA-TATE: 1 h
# T1 construct: CA20948 cells are derived from rat pancreas and express SSTR2 endogenously; endogenous in cells; host or cells: CA20948 rat pancreatic cancer cells
# Method: (§1) Rat pancreatic cancer cell line CA20948 was used given the somatostatin receptor 2 (SSTR2) overexpression as it is found in many human neuroendocrine tumors. Cells were grown in DMEM High Glucose and Pyruvate medium (Gibco 41966029) supplemented with 10% fetal bovine serum (Gibco 10270106) and 100 U/mL penicillin-streptomycin (Sigma-Aldrich P4333) and were maintained in a humidified incubator at 37 °C with 5% CO2 supply. All in vitro results were obtained from a minimum of three replicates per condition.
# Hereafter, fractions were collected. First, the membrane-bound fraction was collected following 10 min incubation at room temperature in strip buffer (50 mM glycine, 100 mM NaCl, pH 2.8). Then, the internalized fraction was collected by 30 min of cell lysis (1 M NaOH) at room temperature. […] In addition, total cell number per well was obtained using a MOXI™ automated cell counter (VWR, Leuven, Belgium).
# CA20948 cells = experiment: MTS viability assay; type: cell-based, rat; details: 4 h treatment, MTS after 4 days, relative to untreated cells, mean ± SD
# Method: as §1
# A total of 10,000 cells were seeded per well into a 96-well plate (31,250 cells/cm²). […] After 4 h incubation at 37 °C in 5% CO2, cells were washed and new medium was added. Then, after 4 days, MTS reagent was prepared according to the manufacturer’s instructions and added to the cells. Absorbance was measured at 490 nm using the BioTek Synergy H1 reader (Agilent). Cell viability was obtained as the ratio of the absorbance of a sample well to the average absorbance of untreated (0 MBq/mL) wells, after subtraction of the background signal of wells containing MTS reagent without cells. Statistical significance (p < 0.05) was determined using linear models.
# [1] = Shelf life in radiolabeling buffer at room temperature (iTLC); type: physicochemical; details: radiolabeling buffer (0.15 M NaOAc, pH 4.7), up to 7 days, iTLC-SG, gamma counter
# Method: (§2) Radiolabeling was performed by adding up to 200 MBq of the ^153Sm radiolabeling solution to 20 nmol of the DOTA-TATE precursor dissolved in 0.15 M NaOAc buffer (pH 4.7) in a total reaction volume of 1 mL. The reaction vial was placed in a Thermomixer C (Eppendorf) to stir (500 rpm) and the mixture was heated to 95 °C for 15 min. After incubation, the radiolabeling yield was evaluated using thin-layer chromatography. An amount of 1–2 µL of the reaction mixture was spotted on a glass microfiber chromatography paper strip impregnated with silica gel (iTLC-SG, Agilent Technologies, Diegem, Belgium) that was eluted with a 0.5 M citrate solution (pH 5.5). After elution, the TLC papers were cut in half and the activity of the bottom and top part of the TLC paper was counted for 2 min each using an automated gamma counter.
# (§3) After 1 h, 3 days, 5 days and 7 days, a 5 µL sample was spotted on the TLC system described above to identify the intact fraction.
# [2] = Stability test in PBS (iTLC); type: physicochemical; details: 37 °C, up to 7 days, ~5 MBq in 250 µL added to 4.75 mL, iTLC-SG, 0.5 M citrate pH 5.5, gamma counter
# Method: as §2, §3
# T1 sequence (P30680 whole entry): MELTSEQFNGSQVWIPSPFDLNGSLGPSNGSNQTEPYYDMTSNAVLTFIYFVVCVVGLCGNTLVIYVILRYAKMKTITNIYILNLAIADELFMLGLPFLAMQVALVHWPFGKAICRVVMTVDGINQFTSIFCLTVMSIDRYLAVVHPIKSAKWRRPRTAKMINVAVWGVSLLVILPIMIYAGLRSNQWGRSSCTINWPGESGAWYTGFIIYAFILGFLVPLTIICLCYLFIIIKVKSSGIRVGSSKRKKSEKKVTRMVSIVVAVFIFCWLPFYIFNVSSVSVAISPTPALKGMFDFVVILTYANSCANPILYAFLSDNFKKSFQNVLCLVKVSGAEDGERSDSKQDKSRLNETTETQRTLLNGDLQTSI
smiles,measurement,setting,value
"C[C@@H](O)[C@H](NC(=O)[C@@H]1CSSC[C@H](NC(=O)[C@@H](Cc2ccccc2)NC(=O)CN2CCN(CC(=O)O)CCN(CC(=O)O)CCN(CC(=O)O)CC2)C(=O)N[C@@H](Cc2ccc(O)cc2)C(=O)N[C@H](Cc2c[nH]c3ccccc23)C(=O)N[C@@H](CCCCN)C(=O)N[C@@H]([C@@H](C)O)C(=O)N1)C(=O)O [[^153Sm]Sm-DOTA-TATE, metal not drawn]",internalized fraction of cell-associated activity,"SSTR2 receptors; 2.5 nM (2.7 kBq), 1 h incubation, mean ± SD",79 ± 2%
same,decrease of binding by co-incubation with unlabeled DOTA-TATE,SSTR2 receptors; 4-fold molar excess of unlabeled DOTA-TATE,about 40%
same,decrease of binding by co-incubation with unlabeled DOTA-TATE,SSTR2 receptors; 4000-fold molar excess of unlabeled DOTA-TATE,~92%
same,cell viability,CA20948 cells; 1.25 MBq/mL,significantly lowered viability
same,"cell viability, reduced down to",CA20948 cells; lowest viability over 0-10 MBq/mL,48 ± 6%
same,time without leaching of 153Sm from the chelator,,> 7 days
same,radiochemical purity (intact fraction),[1],> 98%
same,radiochemical purity (intact fraction),[2],> 99%
